From ChEMBL document CHEMBL1201862, “PubChem BioAssay data set” (2004)
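These data come from cells grown in 96-well plates and exposed to compound for 48 hours at five concentrations. GI50 is the concentration that inhibits growth by half.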 Active and inactive are the calls of the source. Rule as the data show it: active = GI50 up to about 1.1 µM and inactive = higher.

Key:
Assay in all cases: inhibition of tumour cell growth, NCI panel, 48 h
TK-10 = system: TK-10
UACC-257 = system: UACC-257
BT-549 = system: BT-549
786-0 = system: 786-0
IGROV-1 = system: IGROV-1
NCI-H23 = system: NCI-H23
NCI-H226 = system: NCI-H226
EKVX = system: EKVX
CAKI-1 = system: CAKI-1
M14 = system: M14
KM12 = system: KM12
SNB-75 = system: SNB-75
OVCAR-8 = system: OVCAR-8
MCF7 = system: MCF7
UACC-62 = system: UACC-62
SK-MEL-2 = system: SK-MEL-2
PC-3 = system: PC-3
HT-29 = system: HT-29
CCRF-CEM = system: CCRF-CEM

Measured: GI50

O=S(=O)(O)c1ccc(/N=N/c2ccc3c(S(=O)(=O)O)cccc3c2O)c2ccccc12
inactive: TK-10 > 100 µM | UACC-257 > 100 µM | BT-549 > 100 µM | 786-0 > 100 µM | IGROV-1 > 100 µM | NCI-H23 > 100 µM | NCI-H226 > 100 µM | EKVX > 100 µM | CAKI-1 > 100 µM | M14 > 100 µM | KM12 > 100 µM | SNB-75 > 100 µM | OVCAR-8 > 100 µM | MCF7 > 100 µM | UACC-62 > 100 µM | SK-MEL-2 > 100 µM | PC-3 > 100 µM | HT-29 > 100 µM

C/C(=N\NC(=O)/C(C#N)=C\c1ccc(N(CCC#N)CCC#N)cc1)c1ccccc1
inactive: TK-10 > 10 µM | UACC-257 > 10 µM | BT-549 > 10 µM | 786-0 > 10 µM | IGROV-1 > 10 µM | NCI-H23 > 10 µM | NCI-H226 > 10 µM | EKVX > 10 µM | CAKI-1 > 10 µM | M14 > 10 µM | KM12 > 10 µM | SNB-75 > 10 µM | OVCAR-8 > 10 µM | MCF7 > 10 µM | UACC-62 > 10 µM | PC-3 > 10 µM | HT-29 > 10 µM

C=CC1CCC[N+]1(CC(=O)OCC)Cc1ccccc1 (stereo unspecified)
inactive: TK-10 > 100 µM | UACC-257 > 100 µM | BT-549 > 100 µM | 786-0 > 100 µM | IGROV-1 > 100 µM | NCI-H23 > 100 µM | NCI-H226 > 100 µM | EKVX > 100 µM | M14 > 100 µM | SNB-75 > 100 µM | OVCAR-8 > 100 µM | MCF7 > 100 µM | UACC-62 > 100 µM | PC-3 > 100 µM | CCRF-CEM > 100 µM | HT-29 > 100 µM

COc1cc(OC)c2nc(C)c3c(c2c1)NCC3
inactive: TK-10 7.91 µM | UACC-257 3.91 µM | BT-549 14.4 µM | 786-0 4.42 µM | IGROV-1 9.75 µM | NCI-H23 6.34 µM | NCI-H226 3.47 µM | M14 11.6 µM | SNB-75 12.4 µM | OVCAR-8 4.51 µM | MCF7 3.94 µM | UACC-62 9.16 µM | SK-MEL-2 9.42 µM | PC-3 6.03 µM | CCRF-CEM 5.26 µM | HT-29 4.05 µM

CN(C)c1ccc(-c2c(C#N)c(S)n(NS(=O)(=O)c3ccccc3)c(=O)c2C#N)cc1
inactive: TK-10 19 µM | UACC-257 45.8 µM | BT-549 21.1 µM | 786-0 17.1 µM | IGROV-1 15.8 µM | NCI-H23 30.8 µM | EKVX 32.6 µM | CAKI-1 23.8 µM | M14 27.6 µM | KM12 16.2 µM | SNB-75 25.4 µM | OVCAR-8 16.6 µM | MCF7 24.2 µM | UACC-62 20.5 µM | SK-MEL-2 35.9 µM | PC-3 21.1 µM | CCRF-CEM 5.93 µM

O=C(/C=C/c1ccc(O)c(O)c1)OCCCOC(=O)/C=C/c1ccc(O)c(O)c1
inactive: TK-10 29.3 µM | UACC-257 26.4 µM | BT-549 25.3 µM | 786-0 20.2 µM | IGROV-1 13.3 µM | NCI-H23 20.9 µM | EKVX 33.4 µM | CAKI-1 34.4 µM | M14 19.2 µM | KM12 33.3 µM | SNB-75 47.2 µM | OVCAR-8 22.8 µM | MCF7 30.6 µM | UACC-62 16.6 µM | SK-MEL-2 41.8 µM | PC-3 30.5 µM | CCRF-CEM 2.63 µM | HT-29 22.3 µM

Cc1cc(O)c(C(C)C)cc1C1(c2cc(C(C)C)c(O)cc2C)OC(=O)c2ccccc21
inactive: TK-10 3.33 µM | UACC-257 1.85 µM | BT-549 2.24 µM | 786-0 2.4 µM | IGROV-1 2.81 µM | NCI-H23 2.12 µM | NCI-H226 2.48 µM | EKVX 2.99 µM | CAKI-1 3.37 µM | M14 1.82 µM | KM12 1.75 µM | SNB-75 2.58 µM | OVCAR-8 2.7 µM | MCF7 1.84 µM | UACC-62 1.46 µM | SK-MEL-2 1.82 µM | PC-3 2.26 µM | HT-29 2.39 µM

Cc1ccc(O)c(C2=CC3=NNC(=O)C3C(c3cccc(Br)c3)C2)c1 (stereo unspecified)
inactive: TK-10 18.6 µM | UACC-257 45.2 µM | BT-549 23.1 µM | 786-0 29.5 µM | IGROV-1 23.1 µM | NCI-H23 23.7 µM | EKVX 25.9 µM | CAKI-1 23 µM | M14 36.9 µM | KM12 14.9 µM | SNB-75 22.6 µM | OVCAR-8 20.8 µM | MCF7 11.4 µM | UACC-62 19.6 µM | SK-MEL-2 27.4 µM | PC-3 34.3 µM | CCRF-CEM 25.1 µM | HT-29 23.8 µM

CO/[N+]([O-])=C\C(=O)N/C=C/C(=O)O
inactive: UACC-257 > 100 µM | BT-549 > 100 µM | 786-0 > 100 µM | IGROV-1 > 100 µM | NCI-H23 > 100 µM | NCI-H226 > 100 µM | EKVX > 100 µM | CAKI-1 > 100 µM | M14 > 100 µM | KM12 > 100 µM | SNB-75 > 100 µM | OVCAR-8 > 100 µM | MCF7 > 100 µM | UACC-62 > 100 µM | PC-3 > 100 µM | CCRF-CEM > 100 µM | HT-29 > 10 µM

CC(C)(C)C(=O)OCOP(=O)(OCOC(=O)C(C)(C)C)OCC1OC(n2ccc(=O)[nH]c2=O)C(N=[N+]=[N-])C1O (stereo unspecified)
inactive: TK-10 10.5 µM | UACC-257 5.37 µM | BT-549 3.91 µM | 786-0 2.46 µM | IGROV-1 4.23 µM | NCI-H23 4.45 µM | NCI-H226 9.29 µM | EKVX 7.59 µM | CAKI-1 10.4 µM | M14 3 µM | KM12 3.11 µM | SNB-75 1.42 µM | OVCAR-8 3.06 µM | MCF7 3.81 µM | UACC-62 2.88 µM | PC-3 3.81 µM | CCRF-CEM 2.53 µM | HT-29 3.44 µM

COC1(CC[C@H](C)COC2OC(CO)C(O)C(O)C2O)O[C@H]2C[C@H]3[C@@H]4CC=C5C[C@@H](OC6OC(CO)C(OC7OC(C)C(O)C(O)C7O)C(O)C6OC6OC(C)C(O)C(O)C6O)CC[C@]5(C)[C@H]4CC[C@]3(C)[C@H]2[C@@H]1C (stereo partly specified)
inactive: TK-10 35.6 µM | UACC-257 5.51 µM | BT-549 4.88 µM | 786-0 2.42 µM | IGROV-1 6.73 µM | NCI-H23 5.53 µM | NCI-H226 5.73 µM | EKVX 19.5 µM | CAKI-1 1.48 µM | M14 3.12 µM | KM12 2.47 µM | SNB-75 1.86 µM | OVCAR-8 3.37 µM | MCF7 8.45 µM | SK-MEL-2 3.78 µM | PC-3 3.28 µM | CCRF-CEM 11.1 µM | HT-29 2.52 µM
